“And” between values parts separate entries of the source, which are not always exact repeats. Equal entries are not always repeated. Where two headings read alike, the source gives them in different places.

One data set concerns c-Myc. Conditions: literature; cited from earlier work.
The next data set concerns the target BRD4 (Homo sapiens (Human), UniProt O60885). Nature of the data set: Differential Scanning Fluorimetry (DSF), stability of BRD4 upon ligand binding. As to conditions: for IC50: estimated from DSF; for IC50 / DSF ΔTm: Table 1; for DSF: BRD4 ΔTm: 100 μM protein, 4 μM compound and 2% DMSO, Table 4.
Data set [1] concerns MV4-11 AML cells. Nature of the data set: Cellular IC50, MV-4-11. It is filed as cell-based. As to conditions: Homo sapiens. As for the experimental part:
Cellular activity of promising compounds is assessed using MM.1S and MV4-11 AML cells using c-Myc levels as biomarker (6-12 hr treatment) and antiproliferative activity (48-72 hr treatment) as described (Ciceri et al., Dual kinase-bromodomain inhibitors for rationally designed polypharmacology. Nat Chem Biol 2014).

The test system of a further data set is MM.1S cells. Put plainly: Cellular IC50 (cell survival, MTT), MM.1S. It is filed as cell-based. From the text: Increased anti-proliferative effects are correlated with an early, strong reduction of both pSTAT2 and c-Myc levels. The inhibitors highlighted are the most promising equipotent dual BET-JAK2 inhibitors of this series.
Another data set has as its system UKE-1. Nature of the data set: Cellular IC50, UKE-1. It is filed as cell-based. Conditions: UKE1.
The next data set has as its system Saos-2. Nature of the data set: Cellular IC50, Saos-2. Conditions: Homo sapiens. It is filed as cell-based.
Another data set has as its target JAK2 (Homo sapiens (Human), UniProt O60674). Put plainly: HotSpot Kinase assay (Reaction Biology). Conditions: Reaction Biology data. It is filed as biochemical.
The test system of data set [2] is MV4-11 AML cells. As to conditions: literature; read-out: IC50, inhibition of proliferation of MV4-11 AML cells; cited from earlier work.
The next data set deals with BRD4-1 (Homo sapiens (Human), UniProt O60885). Put plainly: Alpha Screen (Reaction Biology). It is filed as binding. As to conditions: Reaction Biology data.
The target in another data set is BRDT-1 (Homo sapiens (Human), UniProt Q58F21). Put plainly: Alpha Screen (Reaction Biology). Conditions: Reaction Biology data. It is filed as binding.
The target in another data set is BRD4-2 (Homo sapiens (Human), UniProt O60885). Put plainly: Alpha Screen (Reaction Biology). Conditions: Reaction Biology data; value in parentheses. It is filed as binding.
For another data set, the system named is HEK293. Nature of the data set: Cellular IC50, HEK293. Conditions: Homo sapiens. It is filed as cell-based.
A further data set is described as follows: Solubility in PBS buffer. It is filed as physicochemical.
Setting [3] is: Homo sapiens, MM1.S, read-out: Cellular IC50 MM.1S.

Chain of JAK2 (O60674 whole entry): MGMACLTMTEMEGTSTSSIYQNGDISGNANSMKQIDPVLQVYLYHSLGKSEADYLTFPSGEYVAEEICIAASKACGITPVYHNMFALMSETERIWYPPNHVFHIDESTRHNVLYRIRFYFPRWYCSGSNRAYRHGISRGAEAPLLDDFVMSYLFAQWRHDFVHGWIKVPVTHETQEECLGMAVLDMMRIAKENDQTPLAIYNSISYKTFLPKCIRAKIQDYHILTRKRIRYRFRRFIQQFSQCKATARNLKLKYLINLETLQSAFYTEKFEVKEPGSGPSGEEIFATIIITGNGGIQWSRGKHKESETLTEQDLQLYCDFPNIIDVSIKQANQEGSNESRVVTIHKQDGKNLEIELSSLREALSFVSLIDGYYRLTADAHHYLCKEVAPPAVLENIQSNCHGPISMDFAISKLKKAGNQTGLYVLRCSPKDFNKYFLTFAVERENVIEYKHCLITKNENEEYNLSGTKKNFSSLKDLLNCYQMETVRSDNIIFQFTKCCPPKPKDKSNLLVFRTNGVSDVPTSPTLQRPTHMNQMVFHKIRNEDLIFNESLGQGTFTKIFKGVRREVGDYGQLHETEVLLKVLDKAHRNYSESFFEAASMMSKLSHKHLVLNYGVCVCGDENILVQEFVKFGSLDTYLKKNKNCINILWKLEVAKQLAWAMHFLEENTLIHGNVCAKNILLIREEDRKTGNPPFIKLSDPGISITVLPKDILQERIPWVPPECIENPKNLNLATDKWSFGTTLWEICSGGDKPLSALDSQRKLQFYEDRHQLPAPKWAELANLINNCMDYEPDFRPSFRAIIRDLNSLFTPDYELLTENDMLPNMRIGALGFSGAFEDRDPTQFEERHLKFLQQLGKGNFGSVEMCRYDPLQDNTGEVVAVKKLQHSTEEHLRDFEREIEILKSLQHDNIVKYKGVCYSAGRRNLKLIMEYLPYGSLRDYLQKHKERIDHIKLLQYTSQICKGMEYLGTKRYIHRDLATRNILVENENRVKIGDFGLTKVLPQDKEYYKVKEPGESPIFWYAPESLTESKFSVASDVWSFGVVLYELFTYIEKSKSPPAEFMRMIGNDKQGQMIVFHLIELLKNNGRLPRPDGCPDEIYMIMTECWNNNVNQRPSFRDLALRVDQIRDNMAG

Take `CC[C@@H]1C(=O)N(C)c2cnc(Nc3ccc(C(=O)NC4CCN(C)CC4)cc3OC)nc2N1C1CCCC1` [BI2536]: the “downregulation of c-Myc in MM.1S cells” value in the data set on c-Myc is reported as “strong downregulation of c-Myc”.
`CCOC(=O)c1cnc(Nc2ccc(N3CCN(C)CC3)cc2)nc1Nc1cccc(S(=O)(=O)NC(C)(C)C)c1`: at BRD4, the IC50 was greater than 20000 nM.
On to `Cc1cnc(Nc2ccc(N3CCN(C)CC3)c(F)c2)nc1Nc1ccc(Cl)c(NS(=O)(=O)C(C)(C)C)c1` [drawing 230], for which the IC50 came out at 53.2 nM in the data set with MV4-11 AML cells [1]; 66 nM in the data set with MM.1S cells (setting [3]); 294 nM with UKE-1; 320 nM in the data set on Saos-2; 3.36 nM against JAK2. Moreover, the “DSF: BRD4 ΔTm” value on BRD4 came out at 12.6 ± 0.06 °C.
For `Cc1cnc(Nc2ccc(OCCN3CCCC3)cc2)nc1Nc1cccc(S(=O)(=O)NC(C)(C)C)c1` [TG101348], the IC50 in the data set on MV4-11 AML cells [2] was 79 nM. Besides, the “downregulation of c-Myc in MM.1S cells” value with c-Myc was “strong downregulation of c-Myc”.
For the molecule `Cc1cnc(Nc2ccc(N3CCN(C)CC3)c(F)c2)nc1Nc1ccc(Cl)c(NS(=O)(=O)C(C)(C)C)c1` [drawing 168], in the data set with MM.1S cells (read-out: MM.1S IC50), the IC50 was 64 nM and 66 nM. The “DSF ΔTm” value at BRD4 is 12.6 ± 0.069 °C.
Consider `Cc1cnc(Nc2ccc(C(=O)NC3CCN(C)CC3)c(F)c2)nc1Nc1ccc(Cl)c(NS(=O)(=O)C(C)(C)C)c1`, for which the IC50 with MV4-11 AML cells [1] worked out at 38.3 nM; on BRD4-1, 9.55 nM; with UKE-1, 225 nM; on BRDT-1, 22.5 nM.
Turning to `Cc1cnc(Nc2ccc(N3CCN(C)CC3)cc2)nc1Nc1cccc(NS(=O)(=O)C(C)(C)C)c1`, the IC50 on BRD4-2 came out at 23.6 nM; in the data set on MV4-11 AML cells [1], 56.7 nM; with MM.1S cells (setting [3]), 399 nM.
Regarding `Cc1cnc(Nc2ccc(N3CCN(C)CC3)c(F)c2)nc1Nc1cccc(NS(=O)(=O)C(C)(C)C)c1` [drawing 231], the IC50 in the data set on MV4-11 AML cells [1] came out at 26.8 nM; in the data set on MM.1S cells (setting [3]) it was 146 nM; with UKE-1, 200 nM; with Saos-2, 133 nM. In addition, the “DSF: BRD4 ΔTm” value at BRD4 worked out at 11.2 ± 0.15 °C.
Take `CCCN(C)c1ccc(Nc2nc3c(c(Nc4cccc(S(N)(=O)=O)c4)n2)COC3)cc1`: on BRD4, the “DSF ΔTm” value worked out at 2.9 ± 0.084 °C and the IC50 is 2300 nM.
As to `Cc1nc(Nc2ccc(N3CCN(C)CC3)cc2)nc(Nc2cccc(S(=O)(=O)NC(C)C)c2)c1C`, on BRD4, the “DSF ΔTm” value came to 5.3 ± 0.064 °C and the IC50 is 370 nM. Besides, the IC50 in the data set with HEK293 is 120000 nM.
For the molecule `Cc1cnc(Nc2ccc(N3CCN(C)CC3)c(F)c2)nc1Nc1cccc(NS(=O)(=O)C(C)(C)C)c1` [drawing 167], the IC50 in the data set with MM.1S cells (read-out: MM.1S IC50) turned out to be 146 nM. For the same molecule, the “DSF ΔTm” value on BRD4 is 11.2 ± 0.15 °C.
As to `Cc1cnc(Nc2ccc(N3CCN(C)CC3)cc2)nc1Nc1cccc(S(=O)(=O)NC(C)(C)C)c1` [TG101209, reference compound], the “DSF ΔTm” value at BRD4 was 6.83 ± 0.129 °C and 7.55 ± 0.154 °C. Further, in the data set with c-Myc, the “downregulation of c-Myc in MM.1S cells” value is given as “strong downregulation of c-Myc”.
Turning to `Cc1cnc(Nc2ccc(N3CCN(C)CC3)cc2)nc1Nc1ccc(Cl)c(NS(=O)(=O)C(C)(C)C)c1` [drawing 232], the values for the IC50 on BRD4-2, at BRD4-1 and in the data set on MM.1S cells (setting [3]) were 27.3 nM, 25 nM and 142 nM, respectively.
On to `Cc1cnc(Nc2ccc(N3CCN(C)CC3)cc2)nc1Nc1ccc(Cl)c(NS(=O)(=O)C(C)(C)C)c1` [drawing 146], for which the IC50 in the data set on MM.1S cells (read-out: MM.1S IC50) came out at 142 nM.
Regarding `Cc1cnc(Nc2ccc(N3CCN(C)CC3)cc2)nc1Nc1ccc(Cl)c(NS(=O)(=O)C(C)(C)C)c1` [SG3-014B2.MSA], the Solubility is greater than 14.4 mg/mL in the data set “Solubility in PBS buffer” (in 1 mL PBS buffer (15% HPCD)) and 0.416 mg in the data set “Solubility in PBS buffer” (in 1 mL PBS buffer (~9.3% DMSO)).

Source of the values: patent publication US11643396B2, “BRD4-kinase inhibitors as cancer therapeutics” (H. LEE MOFFITT CANCER CENTER AND RESEARCH INSTITUTE, INC., priority 2015, dated 2023).
